Source: ChEMBL document CHEMBL1955725, “Structure-guided lead optimization of triazolopyrimidine-ring substituents identifies potent Plasmodium falciparum dihydroorotate dehydrogenase inhibitors with clinical candidate potential” (J Med Chem, 2011)
pEC50: −log10 of the molar value.

How the values were obtained:
[1] = Plasma protein binding in Sprague-Dawley rat at 2 to 21.2 mg/kg, po; assay type: ADME, organism-based; set-up: dose 2-21.2 mg/kg, route oral; conditions: read-out: PPB (converted)
[2] = Cmax in human RBC engrafted NOD-SCID IL-2Rgamma-null mouse infected with Plasmodium falciparum 3D7 0087/N9 at 5.7 mg/kg, po; assay type: ADME, organism-based; set-up: dose 5.7 mg/kg, route oral; conditions: in vivo
Plasma = experiment: Plasma protein binding in human by ultracentrifugation method; assay type: ADME, cell-free
Plasmodium falciparum [3] = experiment: Antimalarial activity against drug-sensitive Plasmodium falciparum D6 by [3H]hypoxanthine incorporation assay in presence of human serum; assay type: functional, organism-based
Plasmodium falciparum [4] = experiment: Antimalarial activity against chloroquine and pyrimethamine-resistant Plasmodium falciparum K1 by [3H]hypoxanthine incorporation assay in presence of human serum; assay type: functional, organism-based
Plasmodium falciparum [5] = experiment: Antimalarial activity against […] Plasmodium falciparum TM90C2A by [3H]hypoxanthine incorporation assay in presence of human serum; assay type: functional, organism-based
L1210 = experiment: Cytotoxicity against mouse L1210 cells; assay type: cell-based
[6] = Cmax in Swiss outbred mouse at 2 mg/kg, po; assay type: ADME, organism-based; set-up: dose 2 mg/kg, route oral; conditions: in vivo
[7] = Cmax in Swiss outbred mouse at 10 mg/kg, po; assay type: ADME, organism-based; set-up: dose 10 mg/kg, route oral; conditions: in vivo
[8] = Cmax in Swiss outbred mouse at 50 mg/kg, po; assay type: ADME, organism-based; set-up: dose 50 mg/kg, route oral; conditions: in vivo
[9] = AUC (0 to infinity) in Swiss outbred mouse plasma at 0.4 mg/kg, po; assay type: ADME, organism-based; set-up: time infinity, dose 0.4 mg/kg, route oral
[10] = Cmax in Sprague-Dawley rat at 2 mg/kg, po; assay type: ADME, organism-based; set-up: dose 2 mg/kg, route oral; conditions: in vivo
[11] = Cmax in Sprague-Dawley rat at 21.2 mg/kg, po; assay type: ADME, organism-based; set-up: dose 21.2 mg/kg, route oral; conditions: in vivo
[12] = Terminal elimination half life in Sprague-Dawley rat at 21.2 mg/kg, po; assay type: ADME, organism-based; set-up: dose 21.2 mg/kg, route oral; conditions: in vivo, read-out: beta t1/2 (converted)
in vivo [13] = conditions: Swiss outbred, mouse, po, 0.4 mg/kg
in vivo [14] = conditions: Sprague-Dawley, rat, po, 21.2 mg/kg

Question: With `Cc1cc(Nc2ccc(C(F)(F)F)cc2)n2nc(C(C)(F)F)nc2n1` as the molecule, how does the fraction unbound [1] read?
Answer: 0.058

Question: What about the Cmax [2] of the same molecule?
Answer: 6.3 µM

Question: And the PPB (Plasma)?
Answer: 98.8%

Question: And the pEC50 (Plasmodium falciparum [3])?
Answer: 7.92

Question: What about the pEC50 (Plasmodium falciparum [4]) of the same molecule?
Answer: 7.80

Question: What about the pEC50 (Plasmodium falciparum [5]) of the same molecule?
Answer: 8.10

Question: What about the pEC50 (L1210) of the same molecule?
Answer: < 4.30

Question: What about the Cmax [6] of the same molecule?
Answer: 1.85 µM

Question: And the Cmax [7]?
Answer: 9.86 µM

Question: What about the Cmax [8] of the same molecule?
Answer: 57 µM

Question: What about the AUC(0-inf) [9] of the same molecule?
Answer: 0.667 µM·h

Question: What about the Cmax [10] of the same molecule?
Answer: 0.9 µM

Question: What about the Cmax [11] of the same molecule?
Answer: 11.4 µM

Question: And the half-life [12]?
Answer: 17 h

Question: And the Tmax (in vivo [13])?
Answer: 0.5 h

Question: What about the Tmax (in vivo [14]) of the same molecule?
Answer: 3.25 h
